Results as given in PMC11353420, “Anti-Inflammatory, Cytotoxic, and Genotoxic Effects of Soybean Oligopeptides Conjugated with Mannose” (Foods, 2024).
“And” between values parts separate entries of the source, which are not always exact repeats. Identical values can stand only once.

Experiments:
[1] = test system: human red blood cells (RBCs); test: Hemolysis assay; type: cell-based; details: 0.05%, positive control
Text: As described by Karinchai et al., human peripheral blood mononuclear cells (PBMCs) and red blood cells (RBCs) were isolated from human blood samples [41]. Human blood samples of healthy subjects obtained from Maharaj Hospital, Chiang Mai, Thailand, were anonymized and kept in a heparinized tube by the laboratory. RBCs were collected and used to determined hemolysis induction by a hemolysis assay. Ficoll-Hypaque solution was used to isolate PBMCs, as described in the manufacturer’s instructions. A certificate of exemption by the Research Ethics Committee of the Faculty of Medicine, Chiang Mai University (No. EXEMPTION 8989/2022), was granted. Consent to participate was not applicable as all data were anonymized. All methods were carried out in accordance with relevant guidelines and regulations.
The hemolytic effect of the oligopeptide and its conjugated forms was determined by hemolysis assay. Briefly, the 5% RBCs suspension was mixed with various concentrations of the samples and further incubated at 37 °C for 3 h. The hemolysis induction by the compounds was measured as described previously. The hemolytic effect of each compound was interpreted using the following guidelines: 0–10% hemolysis is non-hemolysis, 10–25% hemolysis is slight hemolysis induction, and >25% hemolysis is high hemolysis induction.

[2] = test system: HepG2 (Human liver carcinoma cell line); test: SRB cytotoxicity assay, HepG2; type: cell-based
Text: (§1) HEK293 (Human embryonic kidney cell line), HepG2 (Human liver carcinoma cell line), LX-2 (Human hepatic stellate cell line), and 3T3-L1 (Murine preadipocyte cell line) cells were obtained from the American Type Culture Collection (ATCC), Bethesda, MD, USA.

[3] = test system: HEK293 (Human embryonic kidney cell line); test: SRB cytotoxicity assay, HEK293; type: cell-based
Text: as §1

[4] = test system: LX-2 (Human hepatic stellate cell line); test: SRB cytotoxicity assay, LX-2; type: cell-based
Text: as §1

[5] = test system: RAW 264.7 murine macrophage cell line; test: SRB cytotoxicity assay, RAW 264.7
Procedure: The cells were maintained in a 5% CO2 humidified atmosphere (CO2 incubator, Thermo Scientific, Waltham, MA, USA) at 37 °C and sub-cultured every 3 days.
(§2) The cytotoxicity of the oligopeptide and its conjugated forms on HepG2, HEK293, LX-2, and RAW 264.7 cells, pre- and mature 3T3-L1 adipocytes, and hPBMCs was analyzed by a sulforhodamine (SRB) assay to obtain their non-toxic concentration for further experiments and as screening data for their in vitro safety. The cells were plated for 12 h in 96-well plates and then treated with the oligopeptide and its conjugated sugar at a concentration of 0–1000 µg/mL for 48 h. Dimethyl sulfoxide (DMSO) was used as a vehicle control (the untreated control). At the indicated time, the cells were then fixed and subjected to an SRB assay. The absorbance was measured at 510 nm by spectrophotometry (Gen5, BioTek, Winooski, VT, USA), and the cell viability was calculated as the ratio of the treatment versus untreated control. The data are represented as the mean ± standard deviation of three replicates and are expressed relative to the untreated control. The percentage of cell survival was calculated as follows:% cell survival = (Abs_extract/Abs_control) × 100

3T3-L1 Pre-adipocyte = test: SRB cytotoxicity assay, 3T3-L1 pre-adipocyte; type: cell-based, murine
Text: as §1

3T3-L1 Mature-adipocytes = test: SRB cytotoxicity assay, 3T3-L1 mature adipocytes; type: cell-based, murine
Procedure: The pre-adipocyte 3T3-L1 cell line was differentiated to become mature adipocytes by culturing the cells to 100% confluence in 10% calf serum DMEM (CS medium), as Day 0 in a 96 well-plate. After post-confluence, the cells were incubated with the induction medium as a differentiation initiation medium (DMEM […] 1 μM DEX, 0.5 mM IBMX, 167 nM insulin, and 10% FBS) for 3 days (Days 1–3). After that, cells were cultured in a differentiation medium as an adipogenic differentiation medium (differentiation media: DMEM containing 167 nM insulin and 10% FBS) for 3 days (Days 4–6). Finally, maturation was induced in an induced-lipid accumulation medium (maturation media: DMEM containing 167 nM insulin and 10% FBS) for 6 days (Days 7–12). The mature adipocytes were then used for toxicity testing.
as §2

[6] = test system: NO production in LPS-treated RAW 264.7 macrophages; test: LPS-induced nitric oxide (NO)/nitrite production, Griess reaction; type: cell-based, murine; details: 100, 200, 400 µg/mL pretreatment 1 h, LPS 1 µg/mL 24 h
Procedure: To screen the anti-inflammation ability of the compounds, the nitrite level in the cultured medium of the treated cells was determined by the Griess reaction. RAW 264.7 macrophage cells were pretreated with various concentrations of the oligopeptide and its conjugated forms (100, 200, 400 µg/mL) for an hour and then incubated with LPS (1 µg/mL) for further 24 h at 37 °C in a 5% CO2 humidified atmosphere. The culture supernatant was collected for the Griess reagent assay as previous described. The NO production was calculated by comparison with LPS-treated controls.

iNOS = iNOS protein level by immunoblotting in LPS-treated RAW 264.7; type: cell-based, murine; details: 100, 200, 400 µg/mL, LPS 1 µg/mL 24 h
Procedure: (§3) RAW 264.7 macrophage cells were pretreated with various concentrations of the oligopeptide and its conjugated forms (100, 200, 400 µg/mL) for an hour and then incubated with LPS (1 µg/mL) for a further 24 h (at 37 °C in a 5% CO2 humidified atmosphere). The cells were then collected to investigate the iNOS and COX-2 protein levels. Cell lysate was prepared to obtain the protein samples. The samples were subjected to 10% sodium dodecyl sulfate polyacrylamide gel electrophoresis (SDS-PAGE). The separated proteins were electrically transferred to a nitrocellulose membrane. The target proteins were probed with specific antibodies, including anti-COX-2 antibody (Cell signaling, Danvers, MA, USA), anti-iNOS antibody (Merck, Rahway, NJ, USA), and anti-β-actin antibody (Sigma, St. Louis, MO, USA). Protein detection was performed using a chemiluminescence reagent (Bio-Rad Laboratories, Watford, UK).

COX-2 = COX-2 protein level by immunoblotting in LPS-treated RAW 264.7; type: cell-based, murine; details: 100, 200, 400 µg/mL, LPS 1 µg/mL 24 h
Procedure: as §3

IL-6 = IL-6 secretion by ELISA in LPS-treated RAW 264.7; type: cell-based, murine; details: 100, 200, 400 µg/mL, LPS 1 µg/mL 24 h
Procedure: (§4) RAW 264.7 macrophage cells were pretreated with various concentrations of the oligopeptide and its conjugated forms (100, 200, 400 µg/mL) for an hour and then incubated with LPS (1 µg/mL) for further 24 h at 37 °C in a 5% CO2 humidified atmosphere. Then, a sandwich Enzyme Link Immuno-Sorbent Assay was carried out in accordance with the manufacturer’s protocols (BioLegend ELISA MAXTM Deluxe Set, San Diego, CA, USA) to measure TNF-α or IL-6 protein levels in the condition medium.

TNF-α = TNF-α secretion by ELISA in LPS-treated RAW 264.7; type: cell-based, murine; details: 400 µg/mL, LPS-stimulated cells
Procedure: as §4

[7] = test system: Salmonella typhimurium strain TA100; test: Salmonella mutation assay (Ames test), TA100; type: cell-based; details: positive mutagen
Procedure: (§5) Overnight bacterial cultures were mixed with various doses of test compounds with (+S9) or without (−S9) and incubated at 37 °C for 20 min. The top agar was added and then poured onto a plate of minimal glucose agar. The plates were incubated at 37 °C for 48 h. The number of revertant colonies was counted and the mutagenic index (MI) was calculated. 2-aminoanthracene (2-AA) and 2-(2-furyl)-3-(5-nitro-2-furyl)-acrylamide (AF-2) were used as positive mutagens in the presence and absence of S9.

[8] = test system: Salmonella typhimurium strain TA98; test: Salmonella mutation assay (Ames test), TA98; type: cell-based; details: positive mutagen
Procedure: as §5

Drosophila melanogaster = test: Somatic mutation and recombination test (SMART, wing spot test); type: in vivo; design: key to Statistical diagnosis vs DI (negative control), Small Single (1–2 Cells) / Statistical diagnosis vs DI (negative control), Large Single (>2 Cells) / Statistical diagnosis vs DI (negative control), Twin / Statistical diagnosis vs DI (negative control), Total Spots: + = positive; − = negative; i = inconclusive; details: 20 mM, positive control
Procedure: In brief, two strains of fruit flies, including mwh/mwh and ORR; flr^3/In(3LR) TM3, ri p^p sep l(3)89Aa bx^34e e Bd^S, were mated. […] After hatching, forty round wings were collected and analyzed for mutant spots (single, large, and twin spots). The statistical analysis for the wing spot test was performed as previously described. The Drosophila study was approved by the Institute of Nutrition—Mahidol University Institutional Animal Care and Use Committee (INMU-IACUC) (COA. No. INMU-IACUC 2023/01).

triton x-100
% Hemolysis (n = 5) [1]: 100 ± 0.00%

O=C(CO)[C@H](O)[C@H](O)[C@H](O)CO [AL, D-allulose]
IC20 [2]: >1000 mg/L
IC50 ([2]; HepG2, 48 h, SRB): >1000 mg/L
IC20 [3]: >1000 mg/L
IC50 ([3]; HEK293, 48 h, SRB): >1000 mg/L
IC20 [4]: >1000 mg/L
IC50 ([4]; LX-2, 48 h, SRB): >1000 mg/L
IC20 [5]: >1000 mg/L
IC50 ([5]; RAW 264.7, 48 h, SRB): >1000 mg/L
IC20 (3T3-L1 Pre-adipocyte): >1000 mg/L
IC50 (3T3-L1 Pre-adipocyte; 3T3-L1 Pre-adipocyte, 48 h, SRB): >1000 mg/L
IC20 (3T3-L1 Mature-adipocytes): >1000 mg/L
IC50 (3T3-L1 Mature-adipocytes; 3T3-L1 Mature-adipocytes, 48 h, SRB): >1000 mg/L
inhibition of LPS-induced NO production [6]: did not inhibit
effect on iNOS protein level (iNOS): did not affect
effect on COX-2 protein level (COX-2): did not affect
effect on level of IL-6 (IL-6): did not alter
effect on TNF-α level (TNF-α): significantly decreased

Nc1ccc2cc3ccccc3cc2c1 [2-AA, 2-aminoanthracene]
His^+ Revertant Colonies per Plate ([7]; TA100, +S9, 0.5 µg per plate): 599.7 ± 8.7
His^+ Revertant Colonies per Plate ([8]; TA98, +S9, 0.5 µg per plate): 325.8 ± 16.2

CCOC(N)=O [urethane]
Statistical diagnosis vs DI (negative control), Large Single (>2 Cells) (Drosophila melanogaster): +
Statistical diagnosis vs DI (negative control), Small Single (1–2 Cells) (Drosophila melanogaster): +
Statistical diagnosis vs DI (negative control), Total Spots (Drosophila melanogaster): +
Statistical diagnosis vs DI (negative control), Twin (Drosophila melanogaster): +
total mutant spot, fold greater than the negative control (Drosophila melanogaster): 15 fold
Frequency of Mutant Spots per Individual (Number of Spots), Large Single (>2 Cells) (Drosophila melanogaster; 40 wings): 3.40 (136)
Frequency of Mutant Spots per Individual (Number of Spots), Small Single (1–2 Cells) (Drosophila melanogaster; 40 wings): 6.10 (244)
Frequency of Mutant Spots per Individual (Number of Spots), Total Spots (Drosophila melanogaster; 40 wings): 10.18 and 10.18 (407)
Frequency of Mutant Spots per Individual (Number of Spots), Twin (Drosophila melanogaster; 40 wings): 0.68 (27)

NC(=O)C(=Cc1ccc([N+](=O)[O-])o1)c1ccco1 [AF-2, 2-(2-furyl)-3-(5-nitro-2-furyl)-acrylamide]
His^+ Revertant Colonies per Plate ([7]; TA100, −S9, 0.01 µg per plate): 527.3 ± 15.0
His^+ Revertant Colonies per Plate ([8]; TA98, −S9, 0.1 µg per plate): 293.0 ± 10.3
